Source: paper PMC8767159, “Multiparameter Optimization of Trypanocidal Cruzain Inhibitors With In Vivo Activity and Favorable Pharmacokinetics” (Frontiers in Pharmacology, 2022)

Columns and labels:
[1] = target: T1, cruzain (Trypanosoma cruzi, UniProt P25779); assay: Cruzain enzyme inhibition assay (cleavage of fluorogenic substrate Z-FR-AMC); format: biochemical
T1 construct: made in house; host or cells: Escherichia coli (strain M15)
Procedure: Pro-cruzain truncated at the C-terminus was expressed and purified using a previously described protocol ([Ferreira et al., 2019]). Escherichia coli (strain M15) cultures were grown overnight at 37°C and 200 rpm in Luria Bertani (LB) medium supplemented with ampicillin (100 μg/ml) and kanamycin (50 μg/ml). Next, the cultures were diluted 10-fold in fresh LB medium supplemented with 0.5 M NaCl, 0.2% glucose, 1 mM betaine, 0.5 M sorbitol, 100 μg/ml ampicillin, and 50 μg/ml kanamycin and incubated at 37°C and 200 rpm. At an optical density (OD600) of 0.9, the cultures were incubated at 47°C for 20 min to promote the expression of chaperones. Then, the expression of cruzain was induced by adding isopropyl β-D-thiogalactopyranoside (IPTG) to a final concentration of 0.2 mM, which was followed by overnight incubation of the cultures at 20°C and 200 rpm. Next, the cultures were centrifuged (5,000 rpm, 30 min, 4°C), and the cells were suspended in 50 ml of lysis buffer (300 mM NaCl, 50 mM Tris-HCl, and 1.6 mg/ml lysozyme, pH 8.0) per liter of culture and lysed by sonication (12 cycles of 30 s). This cell lysate was centrifuged (9,000 rpm, 30 min, 4°C), and the supernatant was collected. Cruzain was precipitated by incubation with 35% ammonium sulfate (2 h), and this suspension was centrifuged at 9,000 rpm for 30 min at 4°C. The precipitated cruzain was resuspended in lysis buffer, and the sample was dialyzed to eliminate ammonium sulfate. The soluble fraction of the dialysate was loaded on a Ni−NTA column (Qiagen, Hilden, Germany), and the contaminants were washed using washing buffer (300 mM NaCl, 50 mM Tris-HCl, and 10 mM imidazole, pH 8.0). Cruzain was eluted by applying an increasing imidazole gradient: 25, 50, 75, 100, and 250 mM. The fractions containing cruzain were pooled together and dialyzed against 1.5 L of 0.1 M acetate buffer, pH 5.5, and then concentrated to 0.5 mg/ml. Pro-cruzain was activated by incubation with activation buffer (100 mM sodium acetate, pH 5.5, 10 mM EDTA, 5 mM DTT, and 1 M NaCl) at 37°C. […] After activation, the enzyme was diluted 20-fold in binding buffer (20 mM sodium phosphate and 150 mM NaCl, pH 7.2) and added to thiopropyl Sepharose 6B resin (GE Healthcare Life Sciences, Pittsburgh, PA). After overnight incubation at 4°C, the resin was loaded on a column, and cruzain was eluted with binding buffer supplemented with 20 mM DTT. Fractions containing cruzain were pooled together and stored in 0.1 M sodium acetate, pH 5.5, at −80°C.
Cruzain activity was followed by monitoring the cleavage of the fluorogenic substrate Z-Phe-Arg-aminomethyl coumarin (Z-FR-AMC), as previously described ([Ferreira et al., 2019]), using 96-well flat-bottom black plates and wavelengths of 355 nm for excitation and 460 nm for emission. All cruzain assays were performed in 0.1 M sodium acetate buffer with 5 mM dithiothreitol (DTT) and 0.01% Triton X-100, pH 5.5. […] The cleavage of the substrate was monitored for 5 min, and the activity was calculated based on the initial reaction rates compared with the rate of a DMSO control at 30°C. The IC50 values were independently calculated by considering the rate measurements for at least six inhibitor concentrations, each evaluated in triplicate. To determine the mechanism of cruzain inhibition, eight concentrations of the substrate Z-FR-AMC and four concentrations of the inhibitor were employed, each in triplicate. Kinetic parameters were determined using the SigmaPlot (Systat Software Inc., Erkrath, Germany) enzyme kinetics module. Compounds were tested in two or three independent experiments. All enzyme assays were performed using varying Triton X-100 concentrations (0, 0.01, and 0.1%) ([Ferreira et al., 2009]). Compound concentrations were 100 μM in the single-dose percentage inhibition assays.

[2] = target: rhodesain (Trypanosoma brucei rhodesiense, UniProt Q95PM0); assay: Rhodesain fluorescence-based inhibition assay (Z-FR-AMC); format: biochemical; settings: Table S3; compound 100 µM
Procedure: Rhodesain activity was measured using a fluorescence-based assay as previously described ([Fonseca et al., 2015]). The cleavage rates of the fluorogenic substrate Z-Phe-Arg-aminomethyl coumarin (Z-FR-AMC) were monitored at wavelengths of 340 nm for excitation and 440 nm for emission. All assays were performed in triplicate in a 0.1 M sodium acetate buffer, pH 5.5, with 1 mM beta-mercaptoethanol and 0.01% Triton X-100. The final concentration of rhodesain was 3 nM, and the substrate concentration was 2.5 μM. The cleavage of the substrate was followed by continuous reading for 5 min, and enzyme activity in the presence of 100 μM of each potential inhibitor was calculated based on initial velocity rates compared to DMSO controls. All compounds were tested in triplicate in three independent experiments.

[3] = system: T. cruzi intracellular amastigotes; assay: Assay against T. cruzi intracellular amastigotes (Tulahuen lacZ strain in HFF-1 fibroblasts); format: cell-based, Trypanosoma cruzi; settings: Trypanosoma cruzi, HFF-1, 120 h, Table 3, 120 h, mean ± SD of three assays
Procedure: Biological assays against T. cruzi intracellular amastigotes were performed as reported previously using the T. cruzi Tulahuen strain, which is genetically engineered to express the E. coli β-galactosidase gene lacZ ([Buckner et al., 1996]). β-Galactosidase catalyzes a colorimetric reaction with chlorophenol red β-D-galactopyranoside (CPRG, Sigma Chemical Co., St. Louis, MO) as the substrate. The assays were conducted in 96-well tissue culture plates, and the compounds to be tested were prepared in 100% DMSO. Epimastigotes were maintained in liver infusion tryptone (LIT) enriched with 10% fetal calf serum (FCS), streptomycin, and penicillin at 28°C. Epimastigotes were converted to trypomastigotes by incubation in Grace’s insect medium (Sigma–Aldrich, St. Louis, MO) enriched with 10% FCS at 28°C. Human HFF-1 fibroblasts were seeded at 2 × 10^3/well in 80 μl of RPMI 1640 without phenol red and incubated overnight at 37°C and 5% CO2. Trypomastigotes were seeded at 1.0 × 10^4/well in 20 μl of RPMI 1640, and the plates were incubated at 37°C and 5% CO2. The next day, the synthesized compounds were added (50 μl) in 3-fold serial dilutions at concentrations ranging from 0.4 to 300 μM, and the plates were incubated at 37°C and 5% CO2. Each compound concentration was assayed in triplicate. After 120 h, 50 μl of chlorophenol red β-D-galactopyranoside (CPRG, Sigma–Aldrich) and IGEPAL CA-630 (Sigma–Aldrich) at a final concentration of 0.1% were added. The absorbance was measured at a wavelength of 570 nm in an automated microplate reader. The data were transferred to SigmaPlot 10.0 (Systat Software Inc., Erkrath, Germany) to determine the IC50 values. Benznidazole (BZ, Sigma–Aldrich) was used as a positive control, and untreated wells (100% parasite growth) were used as negative controls in all plates. All compounds were tested in three independent assays.

[4] = Parallel artificial membrane permeability assay (PAMPA); format: in vitro ADME; settings: PAMPA, Table 3; donor pH 6.5, acceptor pH 7.4, 5 h
Procedure: The permeability of the compounds was assessed using the PAMPA method ([Yu et al., 2015]). The test compounds were dissolved in DMSO to a concentration of 5 mM. Next, the compounds were diluted in a stock plate in saline phosphate buffer (PBS), pH 6.5, containing 1% DMSO to a concentration of 1 µM. Then, 300 µl of each test compound was added to the donor plate. Afterward, 200 µl of PBS buffer, pH 7.4, was added to the acceptor plate. The donor plate was attached to the acceptor plate. The assembled acceptor-donor plate was then incubated at 37°C for 5 h under gentle agitation. To analyze the concentration of the compounds by mass spectrometry, two analysis plates (one for the donor and another for the acceptor plate) containing 300 μl of MEOH:ACN 50:50 were prepared. To the donor analysis plate, 90 µl of PBS, pH 6.5, and 10 µl of the content of the donor plate were added. For the acceptor analysis plate, 100 µl of the content of the acceptor plate was added. To monitor any potential decomposition/intrinsic instability of the test compounds in solution, samples from the stock plate were subjected to LC-MS/MS. The compounds that presented Pe ≥ 1.5 × 10^−6 cm/s were classified as permeable, while compounds that presented Pe < 1.5 × 10^−6 cm/s were considered poorly permeable or nonpermeable.

T1 sequence (P25779 123-337 limits assumed): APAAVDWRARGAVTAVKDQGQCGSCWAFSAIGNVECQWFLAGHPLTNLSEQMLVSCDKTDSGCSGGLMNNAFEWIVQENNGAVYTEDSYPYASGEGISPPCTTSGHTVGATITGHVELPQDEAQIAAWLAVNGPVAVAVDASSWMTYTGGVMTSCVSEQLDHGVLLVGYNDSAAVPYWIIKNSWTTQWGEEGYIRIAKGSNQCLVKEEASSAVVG
rhodesain, sequence (Q95PM0 entry or part of it): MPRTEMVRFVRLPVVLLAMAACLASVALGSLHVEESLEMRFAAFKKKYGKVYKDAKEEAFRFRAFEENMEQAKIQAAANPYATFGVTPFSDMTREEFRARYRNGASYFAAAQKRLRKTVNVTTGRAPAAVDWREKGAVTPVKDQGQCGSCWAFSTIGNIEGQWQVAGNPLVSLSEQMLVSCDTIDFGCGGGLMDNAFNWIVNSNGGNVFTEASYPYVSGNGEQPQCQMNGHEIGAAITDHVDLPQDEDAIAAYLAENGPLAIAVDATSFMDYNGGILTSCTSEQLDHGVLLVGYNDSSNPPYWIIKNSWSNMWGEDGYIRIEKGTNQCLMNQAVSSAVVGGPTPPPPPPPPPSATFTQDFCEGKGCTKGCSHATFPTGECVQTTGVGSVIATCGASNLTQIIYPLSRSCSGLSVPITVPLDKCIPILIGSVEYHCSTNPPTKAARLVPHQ

`O=C(COc1ccc2cc(C(=O)O)ccc2c1)NCCc1nc2ccccc2[nH]1` [Compound 13] gave an IC50 ([1]; 1.5 nM cruzain, 5.0 µM Z-FR-AMC, mean ± SD of 2–3 assays, read-out: IC50 (µM) against cruzain) of 24.2 ± 4.5 µM, an inhibition at 100 µM ([1]; compound 100 µM, mean of three measures) of 89% and an inhibition at 100 µM [2] of 54%. It also gave an IC50 [3] of over 50 µM and a Papp at 5 h, 1 µM [4] of 0.83 ×10⁻⁶ cm/s.
